pKd: −log10 of the molar value. “Also recorded” adds a separate entry of the source. Read-outs that look alike come from different tables or passages of the source.
Legend:
GPC3 [1] = conditions: cited from earlier work
Description: Table 1. […] Several full-length antibodies, antibody fragments, and peptides for imaging and/or therapeutic use have been developed for GPC3 with varying degrees of success (Table 1).[8–17] […] To rule out the possibility that fluorophore modification of TJ12P1 interfered with its abil ... || (+ 2 further places)

Solubility assays = type: physicochemical
Experimental: (§1) Solubility assays were performed to determine the most compatible solvent for both peptides before in vitro evaluation of GPC3 binding, favoring aqueous solvents over cytotoxic organic solvents such as dimethylformamide (DMF) and dimethyl sulfoxide (DMSO).
FIG. 1. Cy5.5-conjugated TJ12P1 is peptide insoluble in aqueous buffer. Bright field images of Cy5.5-TJ12P1 peptides in solution. In (A, B), peptide Cy5.5-TJ12P1 is undissolved in 20% DMSO/80% ddH2O and 100% ddH2O at 0.3 mg/mL, respectively. DMSO, dimethyl sulfoxide.

[2] = tested on: G1, HepG2, and A431 cells; assay: Flow cytometry, binding compared across A431, G1 and HepG2 cells; type: cell-based, human; conditions: 1 h, n = 3
Experimental: (§2) A431, a human epidermoid carcinoma GPC3^− cell line, and A431-GPC3^+ (G1), a transfected A431 cell line engineered to stably express human GPC3, were both obtained from Dr. M.H. (National Cancer Institute, Bethesda, MD).[12] HepG2 (GPC3^+ liver cancer cell line) was obtained from ATCC (Manassas, VA). All cell lines were cultured in DMEM (Life Technologies, Carlsbad, CA) supplemented with 10% FetaPlex (Gemini Bio-Products, West Sacramento, CA) according to supplier's protocols. All cell lines tested negative for mycoplasma in monthly tests and were used for experiments within 10 passages (HepG2) or 15 passages (A431 and G1).
(§3) Approximately 1 × 10^6 cells per sample tube were harvested, washed once with ice-cold staining buffer (1% bovine serum albumin in 1 × phosphate buffered saline [PBS]), and resuspended in 60 μL staining buffer. Cells were then distributed into control and experimental vials. Unstained and single-color control samples were made. Experimental samples were stained with PE-conjugated anti-GPC3 antibody (R&D Systems, Minneapolis, MN), PE-conjugated IgG2 isotype control (Biolegend, San Diego, CA), conjugated specific or nonspecific peptide and incubated for 1–2 h on ice in the dark. Data were collected using a BD FACSCalibur cytometer running BD CellQuest Pro software (v6.0), and results were analyzed with FlowJo (v10.4.2). All experiments represent biological replicates (n = 3).

[3] = target: Glypican 3 (Homo sapiens) (UniProt P51654); conditions: cited from earlier work
[4] = cited from earlier work
Experimental: as §1, with “(DMSO). […] Sonication and vortexin ... || This study has a few limitations.” for “(DMSO).”

GPC3 [5] = assay: Cell-based and cell-free GPC3 binding assays, overall result; set-up: species or system human; conditions: for binding to GPC3 (overall): fluorescently labeled and unlabeled versions, concentrations in the range of their published KD (0.3–1 μM); for specific binding (overall): concentrations in the range of their reported KD; for selectivity for GPC3 (overall): concentrations near the reported KD
Experimental: as §3
(§4) Biotinylated human GPC3 protein (Acro Biosystems, Newark, DE) was diluted to 5 μg/mL in assay buffer (1 × PBS with 0.02% Tween-20) in a 96-well plate and loaded onto streptavidin biosensors (FortéBio, Menlo Park, CA). Each unconjugated peptide was diluted in assay buffer at four concentrations (1000, 500, 250, and 125 nM for TJ12P1; and 500, 250, 125, and 62.5 nM for KKK-L5) and loaded into the 96-well plate in a final volume of 200 μL. Specific and nonspecific binding wells were made for each concentration. The plate was run on an Octet Red96 system (FortéBio) and analyzed with FortéBio Octet Data Analysis software (v.11).

[6] = Hydrophobic residue content
HepG2 cells = assay: Flow cytometry, HepG2 (GPC3-positive) cells; type: cell-based; conditions: 300 nM, 1 h, n = 3
Experimental: as §2
as §3, with “All experiments represent biological replicates (n = 3).” left out

human GPC3 = target: T1, human GPC3 (Homo sapiens, UniProt P51654); assay: Biolayer interferometry to immobilized recombinant biotinylated GPC3; type: binding; conditions: unlabeled peptide, 1 × PBS with 0.02% Tween-20
T1 construct: biotin (biotinylated); purchased Acro Biosystems
Experimental: as §4

[7] = target: Glypican 3 (Homo sapiens) (UniProt P51654); assay: surface plasmon resonance; conditions: cited from earlier work

T1 sequence (P51654 25-580): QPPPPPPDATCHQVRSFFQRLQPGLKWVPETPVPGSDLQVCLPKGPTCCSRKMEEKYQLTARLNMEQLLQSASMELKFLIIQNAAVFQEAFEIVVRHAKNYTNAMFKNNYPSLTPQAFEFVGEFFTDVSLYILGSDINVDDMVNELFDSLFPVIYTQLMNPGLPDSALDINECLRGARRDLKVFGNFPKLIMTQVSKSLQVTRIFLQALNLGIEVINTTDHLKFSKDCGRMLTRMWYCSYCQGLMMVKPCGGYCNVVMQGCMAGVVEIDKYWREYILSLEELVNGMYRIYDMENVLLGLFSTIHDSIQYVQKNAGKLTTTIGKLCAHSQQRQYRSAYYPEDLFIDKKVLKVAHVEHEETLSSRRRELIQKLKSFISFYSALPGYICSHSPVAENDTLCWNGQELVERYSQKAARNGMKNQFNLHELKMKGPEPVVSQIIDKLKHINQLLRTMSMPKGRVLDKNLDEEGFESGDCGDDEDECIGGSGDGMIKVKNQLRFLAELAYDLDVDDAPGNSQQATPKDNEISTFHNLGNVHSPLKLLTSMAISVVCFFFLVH
Sequence of Glypican 3 (Homo sapiens) (P51654 359-554): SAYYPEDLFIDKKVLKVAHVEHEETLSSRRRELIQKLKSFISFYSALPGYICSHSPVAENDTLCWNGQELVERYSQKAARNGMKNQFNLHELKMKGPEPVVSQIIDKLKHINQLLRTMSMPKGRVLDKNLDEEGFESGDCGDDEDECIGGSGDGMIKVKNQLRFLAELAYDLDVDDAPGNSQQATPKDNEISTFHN

Substance: hGC33: published anti-GPC3 targeting moiety, humanized
- pKd (GPC3 [1]; humanized: Yes, ref [16]): 9.17

Substance: Sulfo-Cy5-DHLASLWWGTEL [sulfo-Cy5-TJ12P1, sulfo-Cy5-labeled variant of TJ12P1]
- solubility (Solubility assays; 0.15 M NH4OAc): appeared to be soluble
- binding, G1 vs HepG2 vs A431 ([2]; 325 nM, flow cytometry): no significant difference in binding between G1, HepG2, and A431 cells; also recorded: nonspecific association of TJ12P1 to all cell lines

Substance: Sulfo-Cy5-KKKRLNVGGTYFLTTRQ [sulfo-Cy5-KKK-L5, sulfo-Cy5-conjugated KKK-L5]
- solubility (Solubility assays; ddH2O, 0.5 mg/mL): soluble in ddH2O
- binding, A431 vs HepG2 and G1 (histogram shift) ([2]; 300 nM, flow cytometry): bound nonspecifically to GPC3, as the observed histogram shift is identical in the A431 (GPC3^−) and the HepG2 and G1 (GPC3^+) cells

Substance: TJ12P1
- pKd [3]: 6.41

Substance: RLNVGGTYFLTTRQ [L5, previously published GPC3-targeting peptide; original L5 not evaluated in this study, reference compound]
- solubility (Solubility assays; aqueous solution): poor solubility in aqueous solutions
- solubility ([4]; original L5 peptide, as reported in literature): poor solubility
- binding to GPC3 (overall) (GPC3 [5]): neither fluorescently labeled nor unlabeled versions tested can bind to GPC3
- hydrophobic residues, share of sequence ([6]; four out of the 14 residues): 28.5%
- hydrophobic residues, number ([6]; out of the 14 residues): Four

Substance: Sulfo-Cy5-KKKYTRFLGTVGNRLTQ [sulfo-Cy5-KKK-L5 scramble, sulfo-Cy5-labeled scrambled variant of KKK-L5]
- difference in staining compared to sulfo-Cy5-KKK-L5 (HepG2 cells; high-staining HepG2 population (Hi), p < 0.001): statistically significant
- difference in staining compared to sulfo-Cy5-KKK-L5 (HepG2 cells; low-staining HepG2 population (Lo), p < 0.005): statistically significant
- binding (MFI) compared to specific peptide (sulfo-Cy5-KKK-L5) ([2]; 300 nM, all three cell lines, p < 0.05): more binding; also recorded: binds better to all cell lines than the specific peptide

Substance: Sulfo-Cy5-WLSHLGDLTWEA [sulfo-Cy5-TJ12P1 scrambled peptide, sulfo-Cy5-labeled scrambled variant of TJ12P1]
- binding compared to sulfo-Cy5-TJ12P1 ([2]; 325 nM, all GPC3+ cell lines (G1, HepG2), flow cytometry, p = 0.02): significantly increased binding in all GPC3^+ cell lines

Substance: DHLASLWWGTEL [TJ12P1]
- pKd (GPC3 [1]; with Cy5.5, ref [9] (Zhu et al.)): 6.41
- solubility (Solubility assays; aqueous solution): poor solubility in aqueous solution
- solubility (Solubility assays; aqueous solution, record 2): poor solubility in aqueous solutions
- KD by BLI (human GPC3; 125–1000 nM): no KD could be calculated
- BLI concentration-dependent binding to GPC3 (human GPC3; 125–1000 nM, recombinant biotinylated human GPC3 on streptavidin biosensors): failed to demonstrate concentration-dependent binding behavior
- specific binding (overall) (GPC3 [5]): do not bind specifically
- selectivity for GPC3 (overall) (GPC3 [5]): neither TJ12P1 nor L5 variant demonstrates selectivity for GPC3
- binding to GPC3 (overall) (GPC3 [5]): neither fluorescently labeled nor unlabeled versions tested can bind to GPC3

Substance: KKK-RLNVGGTYFLTTRQ [KKK-L5, variant of the L5 peptide with three lysine residues]
- solubility (Solubility assays; ddH2O, 0.5 mg/mL): soluble in ddH2O
- KD by BLI (human GPC3; 62.5–500 nM): no KD could be calculated
- BLI binding to GPC3 (human GPC3; 62.5–500 nM, recombinant biotinylated human GPC3 on streptavidin biosensors): absence of specific binding to GPC3; also recorded: failed to demonstrate concentration-dependent binding behavior
- solubility ([4]; aqueous solution, compared to the original L5 peptide, ref [23] (Han et al.)): higher solubility in aqueous solution
- specific binding (overall) (GPC3 [5]): do not bind specifically
- selectivity for GPC3 (overall) (GPC3 [5]): neither TJ12P1 nor L5 variant demonstrates selectivity for GPC3

Substance: L5
- pKd [7]: 7.35

Substance: WLSHLGDLTWEA [TJ12P1 scramble, scrambled variant of TJ12P1, nonspecific control]
- binding (MFI) compared to specific peptide (sulfo-Cy5-TJ12P1) ([2]; 325 nM, all cell lines tested, p < 0.05): more binding to all cell lines tested

From article PMC6802730, “In Vitro Performance of Published Glypican 3-Targeting Peptides TJ12P1 and L5 Indicates Lack of Specificity and Potency” (Cancer Biotherapy & Radiopharmaceuticals, 2019)
